In patent publication US20080176787A1, “Parathyroid hormone analogues and methods of use” (priority 2005, published 2008):
Values joined by “and” are separate entries in the source; they are usually repeats but may differ in a detail not shown here. Equal values may be shown once. Read-outs that look alike come from different tables or passages of the source. Positions of bridges follow the written chain, without caps; N, C: chain ends. Residues, ends and D or L forms follow the SMILES beside them.

Test: Phase II pharmacokinetic evaluation of subcutaneous Ostabolin-C (Baseline and Week 12 subset)
Type: in vivo, human
Design: AUC(0-24): unit: pg·h/mL
Method: The objective of this portion of the study was to evaluate the pharmacokinetics of Ostabolin-C under steady state conditions when given subcutaneously (sc) once a day to post-menopausal female subjects with low bone mineral density.
After Screening procedures and a 2-week placebo run-in phase, subjects were to be dosed once a day for 16 weeks with either Placebo or Ostabolin-C (7.5, 15, 30 or 45 μg). A subset of subjects from all treatment groups had blood collected for measurements of Ostabolin-C in order to determine PK parameters and compare them to prior studies.
The full study duration of the study was 22 weeks, which included a 6-week screening period involving a 2-week placebo run-in and then 16 weeks of treatment. The subset of subjects for this component of the study was treated the same as all other subjects with the exception of the additional blood collections at baseline and Week 12.
All of the values from the Placebo subject except one (Baseline 2 hour time-point) were below the assay level of detection (i.e., 10 pg/ml). With very limited exceptions, all values from Placebo subjects in prior trials have also been below the levels of detection. Thus, this one value was considered to be a laboratory error and PK parameters for this placebo subject were not calculated.
No samples were obtained for Pre-dose at either Baseline or Week 12. In all prior studies, pre-treatment values have been below the levels of detection and 24-hour time points at doses of 40 ug and below have been below the levels of detection. Thus, no observable values were anticipated and for calculating PK the pre-treatment values for Baseline visit were set to zero.
For pre-dose at Week 12, it was also anticipated that the values would be below the levels of detection based on prior studies and that the 24-hour post dose value would verify this. Only two 24-hour time-point values were above the level of detection; i.e. 24 hours post dosing at Baseline for Subject 030-003 and 24 hours post dosing at Week 12 for Subject 030-0004. The values of both of these 24-hour time-points were marginally above the assay level of detection. Also, both of these subjects had values below the levels of detection for both the 4 hour and 6 hour time-points after dosing on the prior day. Thus, these values are most likely artifacts and not real values. No valid 24 hour sample for subject 032-0001 at Week 12 was obtained. […] Thus, for calculating PK parameters, the Pre-dose values for Week 12 were also set to zero.
The pharmacokinetic parameters that were estimated at Baseline and Week 12 are as follows:
AUC values were estimated by a simple summation of trapezoidal areas from each time period. Data from each dose group were summarized using simple statistics on an Excel® spreadsheet; i.e., average (AVG) and Standard Deviation (STD). It should be noted that particularly with the lower doses and associated low blood levels and at late time points, those values just above versus just below the assay limits of detection can have a disproportionate impact to AUC calculations. This adds to that variability of the calculated numbers.

[1] = Baseline, 7.5 ug, individual subjects, in pg·h/mL
[2] = Baseline, 15 ug, individual subjects, in pg·h/mL
[3] = Baseline, 45 ug, individual subjects, in pg·h/mL
[4] = Week 12, 7.5 ug, individual subjects, in pg·h/mL
[5] = Week 12, 30 ug, individual subjects, in pg·h/mL

Question: Which results are given for `CC[C@H](C)[C@H](NC(=O)[C@H](CCC(=O)O)NC(=O)[C@H](CO)NC(=O)[C@@H](NC(=O)[C@@H](N)CO)C(C)C)C(=O)N[C@@H](CCC(N)=O)C(=O)N[C@@H](CC(C)C)C(=O)N[C@@H](CCSC)C(=O)N[C@@H](Cc1c[nH]cn1)C(=O)N[C@@H](CC(N)=O)C(=O)N[C@@H](CC(C)C)C(=O)NCC(=O)N[C@@H](CCCCN)C(=O)N[C@@H](Cc1c[nH]cn1)C(=O)N[C@@H](CC(C)C)C(=O)N[C@@H](CC(N)=O)C(=O)N[C@@H](CO)C(=O)N[C@@H](CCSC)C(=O)N[C@@H](CCC(=O)O)C(=O)N[C@@H](CCCN=C(N)N)C(=O)N[C@H](C(=O)N[C@H]1CCC(=O)NCCCC[C@@H](C(=O)N[C@@H](CC(C)C)C(=O)N[C@@H](CC(C)C)C(=O)N[C@@H](CCC(N)=O)C(=O)N[C@@H](CC(=O)O)C(=O)N[C@H](C(N)=O)C(C)C)NC(=O)[C@H](CCCN=C(N)N)NC(=O)[C@H](CC(C)C)NC(=O)[C@H](Cc2c[nH]c3ccccc23)NC1=O)C(C)C` [Ostabolin-C, [Leu^27]cyclo[Glu^22-Lys^26]-PTH-(1-31)-NH2] (H-SVSEIQLMHNLGKHLNSMERVEWLRKLLQDV-NH2; lactam 22-26)?
Answer: Tmax (Baseline, 7.5 ug, individual subjects): 1.00; Cmax (Baseline, 7.5 ug, individual subjects, in pg/mL): 27.75 and 33.15; AUC(0-4) [1]: 11.71 and 16.25 and 88.35; AUC(0-24) [1]: 11.71 and 16.25 and 99.67; Cmax (Baseline, 15 ug, individual subjects, in pg/mL): 57.54 and 46.59; AUC(0-4) [2]: 82.31 and 74.38; AUC(0-24) [2]: 82.31 and 74.38; Cmax (Baseline, 45 ug, individual subjects, in pg/mL): 114.54 and 233.33; AUC(0-4) [3]: 344.39; AUC(0-24) [3]: 370.47; Cmax (Week 12, 7.5 ug, individual subjects, in pg/mL): 37.84 and 40.38; AUC(0-4) [4]: 28.83 and 64.83; AUC(0-24) [4]: 28.83 and 64.83; AUC(0-24) (Week 12, 15 ug, individual subjects): 164.36 and 54.29* and 110.80; Cmax (Week 12, 15 ug, individual subjects, in pg/mL): 41.98 and 33.33 and 69.33; AUC(0-4) (Week 12, 15 ug, individual subjects, in pg·h/mL): 68.69 and 54.29 and 110.80; Cmax (Week 12, 30 ug, individual subjects, in pg/mL): 46.75; AUC(0-4) [5]: 142.45 and 70.73; AUC(0-24) [5]: 214.03; accumulation (after 12 weeks of dosing): no evidence of accumulation; Tmax (female, human, blood, sc, 7.5 ug, Baseline, 7.5 ug, AVG, read-out: Tmax): 30 min; AUC(0-t) (female, human, blood, sc, 7.5 ug, Dose 7.5, mean of Baseline and Week 12 data, read-out: AUC(0-4)): 0.0365 ng·h/mL; AUC(0-t) (female, human, blood, sc, 7.5 ug, Dose 7.5, mean of Baseline and Week 12 data, read-out: AUC(0-24)): 0.0384 ng·h/mL; Cmax (female, human, blood, sc, 7.5 ug, Dose 7.5, mean of Baseline and Week 12 data, read-out: Cmax): 0.0301 ng/mL; Tmax (female, human, blood, sc, 7.5 ug, Dose 7.5, mean of Baseline and Week 12 data, read-out: Tmax): 22.8 min; AUC(0-t) (female, human, blood, sc, 7.5 ug, Week 12, 7.5 ug, AVG, read-out: AUC(0-4)): 0.0343 ng·h/mL; AUC(0-t) (female, human, blood, sc, 7.5 ug, Week 12, 7.5 ug, AVG, read-out: AUC(0-24)): 0.0343 ng·h/mL; Cmax (female, human, blood, sc, 7.5 ug, Week 12, 7.5 ug, AVG, read-out: Cmax): 0.0331 ng/mL; Tmax (female, human, blood, sc, 7.5 ug, Week 12, 7.5 ug, AVG, read-out: Tmax): 15 min; Tmax (female, human, blood, sc, 15 ug, Baseline, 15 ug, AVG, read-out: Tmax): 19.8 min; AUC(0-t) (female, human, blood, sc, 15 ug, Dose 15, mean of Baseline and Week 12 data, read-out: AUC(0-4)): 0.0761 ng·h/mL; AUC(0-t) (female, human, blood, sc, 15 ug, Dose 15, mean of Baseline and Week 12 data, read-out: AUC(0-24)): 0.092 ng·h/mL; Cmax (female, human, blood, sc, 15 ug, Dose 15, mean of Baseline and Week 12 data, read-out: Cmax): 0.0466 ng/mL; AUC(0-t) (female, human, blood, sc, 15 ug, Week 12, 15 ug, AVG, read-out: AUC(0-4)): 0.0779 ng·h/mL; AUC(0-t) (female, human, blood, sc, 15 ug, Week 12, 15 ug, AVG, read-out: AUC(0-24)): 0.11 ng·h/mL; Cmax (female, human, blood, sc, 15 ug, Week 12, 15 ug, AVG, read-out: Cmax): 0.0482 ng/mL; AUC(0-t) (female, human, blood, sc, 30 ug, Dose 30, mean of Baseline and Week 12 data, read-out: AUC(0-4)): 0.123 ng·h/mL; AUC(0-t) (female, human, blood, sc, 30 ug, Dose 30, mean of Baseline and Week 12 data, read-out: AUC(0-24)): 0.129 ng·h/mL; Cmax (female, human, blood, sc, 30 ug, Dose 30, mean of Baseline and Week 12 data, read-out: Cmax): 0.0701 ng/mL; Tmax (female, human, blood, sc, 30 ug, Dose 30, mean of Baseline and Week 12 data, read-out: Tmax): 22.8 min; Tmax (female, human, blood, sc, 45 ug, Baseline, 45 ug, AVG, read-out: Tmax): 30 min
